This is an account of results in patent US20250250642A1, “APOE GENOTYPING IN CANCER PROGNOSTICS AND TREATMENT” (The Rockefeller University, priority 2019, published 2025).

One experiment has as its system YUMM1.7 tumors. In words: Growth of YUMM1.7 tumors in human APOE knock-in mice under LXR-agonistic treatment. Format: in vivo, mouse. To be noted: RGX-104 in chow, approximate target dose 100 mg/kg body weight, from day 3 post injection. How it is done: To assess the impact of APOE genotype on the growth of syngeneic melanoma, 1×10^5 YUMM1.7 cells were subcutaneously injected into the flank of 6-10-weeks-old, sex-matched human APOE targeted replacement mice. Cells were injected in a total volume of 100 μL, and YUMM1.7 cells were mixed 1:1 with growth factor reduced Matrigel (356231, Corning) before injection. Tumor size was measured on the indicated days using digital calipers, and tumor volume was calculated as (small diameter)^2×(large diameter)×Π/6. In experiments employing YUMMER1.7 cells, 5×10^5 cells resuspended in PBS were injected subcutaneously into the flank. For LXR-agonistic treatment, mice were administered chow supplemented with the synthetic LXR-agonist RGX-104 (Rgenix (Tavazoie, M., et al. (2018) Cell, 172 (4), 825-840)) at 628.5 mg/kg chow (Research Diets, approximate target dose of 100 mg/kg body weight) starting on day 3 post injection. For anti-PD1 treatment, mice were injected intraperitoneally with 250 μg and 125 μg of anti-PD-1 antibody (BioXCell, clone RMP1-14) on days 6 and 9 post tumor cell injection, respectively. Control mice received PBS injections on the same days. For survival analysis in the YUMMER1.7 model, mice were euthanized when the tumor volume exceeded 1000 mm^3. Therapy responses were considered complete (CR, complete response) when tumor volumes fell below 16 mm^3 (lowest limit of detection).

Another experiment relates to solid cancers. Briefly: RGX-104 in patients with solid cancers, radiographic tumor response by ApoE genotype. Format: in vivo, human. The conditions noted are these: monotherapy or combination with docetaxel, nivolumab or ipilimumab. How it is done: RGX-104 was administered to patients with solid cancers as a monotherapy or in combination with either docetaxel, nivolumab, or ipilimumab. Fifty-one patients were evaluable for both radiographic assessment of tumor response and ApoE genotype. Below is a table showing the number of patients with each genotype and the number of clinical responses (Partial Responses) to the therapy.

The mark [1] stands for this setting: ApoE genotype E2/E3 (10 patients).
The mark [2] stands for this setting: ApoE genotype E2/E4 (3 patients).
Setting [3] is: ApoE genotype E3/E3 (30 patients).
Setting [4] is: ApoE genotype E3/E4 (8 patients).

Regarding `C[C@H](CCOc1cccc(CC(=O)O)c1)N(Cc1cccc(C(F)(F)F)c1Cl)CC(c1ccccc1)c1ccccc1` [RGX-104, 2-[3-[(3R)-3-[[2-chloro-3-(trifluoromethyl)phenyl]methyl-(2,2-diphenylethyl)amino]butoxy]phenyl]acetic acid], the entries for the “efficacy of LXR agonism (tumor growth)” value in the experiment with YUMM1.7 tumors (APOE2 mice) and in the experiment with YUMM1.7 tumors (APOE4 mice) were “completely abrogated” and “robust anti-tumor effects”, respectively. The “Number of Partial Responses” value in the experiment with solid cancers (setting [1]) is on record as 0; with solid cancers (setting [2]) it was 1; in the experiment on solid cancers (setting [3]), 1; in the experiment on solid cancers (setting [4]), 1. The “Percent of patients with a Partial Response” value with solid cancers (setting [1]) is reported as 0%; with solid cancers (setting [2]), 33.3%; in the experiment with solid cancers (setting [3]), 3.3%; in the experiment with solid cancers (setting [4]), 12.5%.
